According to patent US9045435B2, “Quinazoline compounds as sodium channel blockers” (Purdue Pharma, L.P., priority 2010, dated 2015):
Read-outs that look alike come from different tables or passages of the source.

Key:
human Nav1.7 = human Nav1.7 (Homo sapiens, UniProt Q15858); assay: FLIPR or FLIPR TETRA sodium dye assay with KCl and test article pre-incubation; type: cell-based
hNav1.7 = hNav1.7 (Homo sapiens, UniProt Q15858); assay: Electrophysiology (EP) assay, whole-cell patch clamp; type: cell-based; conditions: for Kd: resting block dissociation constant, read-out: EP Nav1.7 Kr
hNav1.7, sequence (Q15858 1-1977 isoform Q15858-3): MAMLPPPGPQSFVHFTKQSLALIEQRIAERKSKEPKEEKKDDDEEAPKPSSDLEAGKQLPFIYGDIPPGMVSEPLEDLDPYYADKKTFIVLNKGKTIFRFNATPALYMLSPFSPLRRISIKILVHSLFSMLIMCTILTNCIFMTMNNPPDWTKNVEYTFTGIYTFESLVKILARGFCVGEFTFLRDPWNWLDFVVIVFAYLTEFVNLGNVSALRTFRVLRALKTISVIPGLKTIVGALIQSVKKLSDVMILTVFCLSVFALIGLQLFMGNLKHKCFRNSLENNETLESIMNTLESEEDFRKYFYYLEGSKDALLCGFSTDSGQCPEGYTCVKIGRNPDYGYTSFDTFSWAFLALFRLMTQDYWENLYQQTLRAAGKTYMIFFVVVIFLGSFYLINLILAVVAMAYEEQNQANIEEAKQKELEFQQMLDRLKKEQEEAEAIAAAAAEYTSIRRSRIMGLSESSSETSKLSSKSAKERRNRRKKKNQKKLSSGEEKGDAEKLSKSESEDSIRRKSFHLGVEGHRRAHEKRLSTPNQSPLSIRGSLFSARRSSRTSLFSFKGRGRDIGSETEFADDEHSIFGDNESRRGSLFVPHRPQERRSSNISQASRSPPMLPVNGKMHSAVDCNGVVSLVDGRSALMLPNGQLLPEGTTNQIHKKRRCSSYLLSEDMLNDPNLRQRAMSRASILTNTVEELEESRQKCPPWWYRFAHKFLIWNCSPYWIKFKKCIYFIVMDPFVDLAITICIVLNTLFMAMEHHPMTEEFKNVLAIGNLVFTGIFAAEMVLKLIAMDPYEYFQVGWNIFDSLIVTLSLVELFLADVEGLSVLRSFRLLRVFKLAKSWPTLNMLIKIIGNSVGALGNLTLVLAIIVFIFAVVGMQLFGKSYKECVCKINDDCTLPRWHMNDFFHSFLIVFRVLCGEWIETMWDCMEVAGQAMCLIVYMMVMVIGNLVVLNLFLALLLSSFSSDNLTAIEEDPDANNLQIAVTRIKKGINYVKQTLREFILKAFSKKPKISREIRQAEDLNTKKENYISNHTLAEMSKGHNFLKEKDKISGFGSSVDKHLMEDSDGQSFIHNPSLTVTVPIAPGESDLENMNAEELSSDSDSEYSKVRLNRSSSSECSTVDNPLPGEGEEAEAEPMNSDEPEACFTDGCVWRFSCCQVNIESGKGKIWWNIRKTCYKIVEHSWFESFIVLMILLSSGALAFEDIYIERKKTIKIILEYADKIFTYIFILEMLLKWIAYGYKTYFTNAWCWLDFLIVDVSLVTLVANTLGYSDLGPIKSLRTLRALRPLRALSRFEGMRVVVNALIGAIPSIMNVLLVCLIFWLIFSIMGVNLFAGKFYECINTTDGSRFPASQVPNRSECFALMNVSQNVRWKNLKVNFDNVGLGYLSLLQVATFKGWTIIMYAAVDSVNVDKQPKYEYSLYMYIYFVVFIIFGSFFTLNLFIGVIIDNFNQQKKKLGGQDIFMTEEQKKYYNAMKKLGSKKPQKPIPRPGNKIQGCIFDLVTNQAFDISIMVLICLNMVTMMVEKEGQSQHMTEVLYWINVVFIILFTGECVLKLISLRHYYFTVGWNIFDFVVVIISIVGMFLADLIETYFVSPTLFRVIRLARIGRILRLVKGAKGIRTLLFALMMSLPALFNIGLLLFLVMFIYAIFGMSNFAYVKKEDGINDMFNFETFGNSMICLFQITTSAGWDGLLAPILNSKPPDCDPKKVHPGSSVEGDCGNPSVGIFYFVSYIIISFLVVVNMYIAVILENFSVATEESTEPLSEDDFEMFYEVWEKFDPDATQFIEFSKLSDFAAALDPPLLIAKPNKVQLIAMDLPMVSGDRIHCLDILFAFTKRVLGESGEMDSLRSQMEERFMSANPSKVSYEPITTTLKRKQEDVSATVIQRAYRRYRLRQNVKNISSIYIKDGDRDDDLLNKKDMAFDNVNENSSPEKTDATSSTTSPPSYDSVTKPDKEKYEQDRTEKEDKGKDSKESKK
Method: The hNav1.7 expressing HEK-293 cells were plated on 35 mm culture dishes pre-coated with poly-D-lysine in standard DMEM culture media (Mediatech, Inc., Herndon, Va.) and incubated in a 5% CO2 incubator at 37° C. Cultured cells were used approximately 12-48 hours after plating.
On the day of experimentation, the 35 mm dish was placed on the stage of an inverted microscope equipped with a perfusion system that continuously perfuses the culture dish with fresh recording media. A gravity driven superfusion system was used to apply test solutions directly to the cell under evaluation. This system consists of an array of glass pipette glass connected to a motorized horizontal translator. The outlet of the shooter was positioned approximately 100 μm from the cell of interest.
Whole cell currents were recorded using the whole-cell patch clamp configuration using an Axopatch 200B amplifier (Axon Instruments, Foster City Calif.), 1322A A/D converter (Axon Instruments) and pClamp software (v. 8; Axon Instruments) and stored on a personal computer. Gigaseals were formed and the whole-cell configuration was established in voltage clamp mode, and membrane currents generated by hNav1.7 were recorded in gap-free mode. Borosilicate glass pipettes have resistance values between 1.5 and 2.0 MΩ when filled with pipette solution and series resistance (<5 MΩ) was compensated 75-80%. Signals were sampled at 50 kHz and low pass filtered at 3 kHz.
After establishing the whole-cell configuration in voltage clamp mode, voltage protocols were run to establish the 1) test potential, 2) holding potential, and 3) the conditioning potential for each cell.
After establishing the whole-cell configuration in voltage clamp mode, a standard I-V protocol was run to determine the potential at which the maximal current (Imax) is elicited. This potential was the test potential (Vt). To determine a conditioning potential at which 100% of channels were in the inactivated state, a standard steady-state inactivation (SSIN) protocol was run using a series of fifteen 100 ms-long depolarizing prepulses, incrementing in 10 mV steps, immediately followed by a 5 ms testing pulse, Vt, to Vmax. This protocol also permitted determination of the holding potential at which all channels are in the resting state.
For compounds causing significant retardation of recovery from inactivation, an estimate of the affinity for the inactivated state of the channel (Ki) was generated using the following protocol. From the negative, no residual inactivation, holding potential, the cell was depolarized to the conditioning voltage for 2-5 seconds, returned to the negative holding potential for 10-20 ms to relieve fast inactivation and then depolarized to the test potential for ˜15 ms. This voltage protocol was repeated every 10-15 seconds, first to establish a baseline in the absence of the test compound, then in the presence of the test compound.
After a stable baseline was established, the test compound was applied and block of the current elicited by the test pulse assessed. In some cases, multiple cumulative concentrations were applied to identify a concentration that blocked between 40-60% of this current. Washout of the compound was attempted by superfusing with control solution once steady-state block was observed. An estimate of the Ki was calculated as follows: Ki=[drug]*{FR/(1−FR)}, Eq. 1 where [drug] is the concentration of a drug, and FR=I(after drug)/I(control), Eq. 2 where I is the peak current amplitude. If multiple concentrations were used, Ki was determined from the fit of a logistic equation to FRs plotted against corresponding drug concentrations.
In the alternative, the voltage clamp protocol to examine hNav1.7 currents was as follows. […]

[1] = sodium dye assay with KCl, recombinant Nav1.7/HEK293 cells, read-out: FLIPR Nav1.7 IC50 (μM) ± SEM
[2] = affinity for the inactivated state of the channel, HEK-293 cells, spread on the next grid line, read-out: EP Nav1.7 Kj
[3] = HEK-293 cells, spread on the next grid line

human Nav1.7, sequence (Q15858 1-1977 isoform Q15858-3): as above

SMILES | IC50 (human Nav1.7; [1]) [µM] | further results
O=C1NCCN1CCNc1nc(-c2ccc(Oc3ccc(F)cc3)cc2)c2ccccc2n1 [Compound 13v, 1-(2-((4-(4-(4-fluorophenoxy)phenyl)quinazolin-2-yl)amino)ethyl)imidazolidin-2-one] | 0.204 | Ki (hNav1.7; [2]): 0.46 µM; Kd (hNav1.7; [3]): 23.7 µM
Fc1ccc(Oc2ccc(-c3nc(NCCCn4ccnc4)nc4ccccc34)cc2)cc1 [Compound 13o, N-(3-(1H-imidazol-1-yl)propyl)-4-(4-(4-fluorophenoxy)phenyl)quinazolin-2-amine] | 0.325 | 
CN1CCN(c2nc(-c3ccc(Oc4ccc(F)cc4)cc3)c3ccccc3n2)CC1 [Compound 13k, 4-(4-(4-fluorophenoxy)phenyl)-2-(4-methylpiperazin-1-yl)quinazoline] | 0.418 | Ki (hNav1.7; [2]): 0.07 µM; Kd (hNav1.7; [3]): 2.09 µM
OC[C@H](O)CNc1nc(-c2ccc(Oc3ccc(F)cc3)cc2)c2ccccc2n1 [Compound 13q, (R)-3-((4-(4-(4-fluorophenoxy)phenyl)quinazolin-2-yl)amino)propane-1,2-diol] | 0.071 | Ki (hNav1.7; [2]): 0.22 µM
Nc1nc(-c2ccc(Oc3ccc(F)cc3)cc2)c2ccccc2n1 [Compound 13e, 4-(4-(4-fluorophenoxy)phenyl)quinazolin-2-amine] | 0.426 | 
COC(=O)[C@@H]1CCCN1c1nc(-c2ccc(Oc3ccc(F)cc3)cc2)c2ccccc2n1 [Compound 13f, (S)-methyl 1-(4-(4-(4-fluorophenoxy)phenyl)-quinazolin-2-yl)pyrrolidine-2-carboxylate] | 0.642 | Ki (hNav1.7; [2]): 0.62 µM; Kd (hNav1.7; [3]): 23.9 µM
NC(=O)c1nc(-c2ccc(Oc3ccccc3)cc2)c2ccccc2n1 [Compound 5, 4-(4-phenoxyphenyl)quinazoline-2-carboxamide] | 0.097 | Ki (hNav1.7; [2]): 0.12 µM
CCN1CCN(c2nc(-c3ccc(Oc4ccc(F)cc4)cc3)c3ccccc3n2)CC1 [Compound 13h, 2-(4-ethylpiperazin-1-yl)-4-(4-(4-fluorophenoxy)phenyl)quinazoline] | 0.236 | 
NC(=O)CNc1nc(-c2ccc(Oc3ccc(F)cc3)cc2)c2ccccc2n1 [Compound 13x, 2-((4-(4-(4-fluorophenoxy)phenyl)quinazolin-2-yl)amino)acetamide] | > 20 | 
CN(C)CCCNc1nc(-c2ccc(Oc3ccc(F)cc3)cc2)c2ccccc2n1 [Compound 13p, N^1-(4-(4-(4-fluorophenoxy)phenyl)quinazolin-2-yl)-N^3,N^3-dimethylpropane-1,3-diamine] | 0.205 | 
CCOC(=O)c1nc(-c2ccc(Oc3ccccc3)cc2)c2ccccc2n1 [Compound 3, ethyl 4-(4-phenoxyphenyl)quinazoline-2-carboxylate] | 1.57 | 
CN1[C@@H]2CCC[C@H]1C[C@@H](Nc1nc(-c3ccc(Oc4ccc(F)cc4)cc3)c3ccccc3n1)C2 [Compound 13t, 4-(4-(4-fluorophenoxy)phenyl)-N-((1R,3S,5S)-9-methyl-9-azabicyclo[3.3.1]nonan-3-yl)quinazolin-2-amine] |  | IC50 (human Nav1.7): 0.228 µM; Ki (hNav1.7): 0.02 µM
NC(=O)[C@H](CO)Nc1nc(-c2ccc(Oc3ccc(F)cc3)cc2)c2ccccc2n1 [Compound 13a, (S)-2-{4-[4-(4-fluorophenoxy)phenyl]quinazolin-2-ylamino}-3-hydroxy-propionamide] | 0.836 | Ki (hNav1.7; [2]): 0.74 µM
OCC(CO)Nc1nc(-c2ccc(Oc3ccc(F)cc3)cc2)c2ccccc2n1 [Compound 13u, 2-((4-(4-(4-fluorophenoxy)phenyl)quinazolin-2-yl)amino)propane-1,3-diol] | 0.208 | Ki (hNav1.7; [2]): 0.64 µM; Kd (hNav1.7; [3]): 55.3 µM
CN(C)CCNc1nc(-c2ccc(Oc3ccc(F)cc3)cc2)c2ccccc2n1 [Compound 13d, N^1-(4-(4-(4-fluorophenoxy)phenyl)quinazolin-2-yl)-N^2,N^2-dimethylethane-1,2-diamine] | 0.317 | 
OCCN1CCN(c2nc(-c3ccc(Oc4ccc(F)cc4)cc3)c3ccccc3n2)CC1 [Compound 13j, 2-(4-(4-(4-(4-fluorophenoxy)phenyl)quinazolin-2-yl)piperazin-1-yl)ethanol] | 0.104 | 
OCCNc1nc(-c2ccc(Oc3ccc(F)cc3)cc2)c2ccccc2n1 [Compound 13c, 2-((4-(4-(4-fluorophenoxy)phenyl)quinazolin-2-yl)amino)ethanol] | 0.369 | 
OC1CCN(c2nc(-c3ccc(Oc4ccc(F)cc4)cc3)c3ccccc3n2)CC1 [Compound 13i, 1-(4-(4-(4-fluorophenoxy)phenyl)quinazolin-2-yl)piperidin-4-ol] | 0.428 | 
Fc1ccc(Oc2ccc(-c3nc(Oc4ccccn4)nc4ccccc34)cc2)cc1 [Compound 13z, 4-(4-(4-fluorophenoxy)phenyl)-2-(pyridin-2-yloxy)quinazoline] | 1.91 | 
COC(=O)[C@@H]1C[C@@H](O)CN1c1nc(-c2ccc(Oc3ccc(F)cc3)cc2)c2ccccc2n1 [Compound 13m, (2S,4R)-methyl 1-(4-(4-(4-fluorophenoxy)phenyl)quinazolin-2-yl)-4-hydroxypyrrolidine-2-carboxylate] | 0.833 | 
CCOc1nc(-c2ccc(Oc3ccc(F)cc3)cc2)c2ccccc2n1 [Compound 13y, 2-ethoxy-4-(4-(4-fluorophenoxy)phenyl)-quinazoline] | 0.995 | 
O=C(O)c1nc(-c2ccc(Oc3ccccc3)cc2)c2ccccc2n1 [Compound 4, 4-(4-phenoxyphenyl)quinazoline-2-carboxylic acid] | > 20 | 
CN(N)c1nc(-c2ccc(Oc3ccc(F)cc3)cc2)c2ccccc2n1 [Compound 13g, 4-(4-(4-fluorophenoxy)phenyl)-2-(1-methylhydrazinyl)quinazoline] | 0.309 | 
OC[C@@H](O)CNc1nc(-c2ccc(Oc3ccc(F)cc3)cc2)c2ccccc2n1 [Compound 13r, (S)-3-((4-(4-(4-fluorophenoxy)phenyl)quinazolin-2-yl)amino)propane-1,2-diol] | 0.32 | 
O=C1CN(c2nc(-c3ccc(Oc4ccc(F)cc4)cc3)c3ccccc3n2)CCN1 [Compound 13b, 4-(4-(4-(4-fluorophenoxy)phenyl)quinazolin-2-yl)piperazin-2-one] | 0.839 | 
NC(=O)C[C@H](Nc1nc(-c2ccc(Oc3ccc(F)cc3)cc2)c2ccccc2n1)C(N)=O [Compound 13s, (S)-2-((4-(4-(4-fluorophenoxy)phenyl)quinazolin-2-yl)amino)succinamide] | 0.313 | 
NN(CCO)c1nc(-c2ccc(Oc3ccc(F)cc3)cc2)c2ccccc2n1 [Compound 13w, 2-(1-(4-(4-(4-fluorophenoxy)phenyl)quinazolin-2-yl)hydrazinyl)ethanol] | 0.07 | 
CNc1nc(-c2ccc(Oc3ccc(F)cc3)cc2)c2ccccc2n1 [Compound 13n, 4-(4-(4-fluorophenoxy)phenyl)-N-methylquinazolin-2-amine] | 0.294 | 
NC(=O)[C@@H]1CCCN1c1nc(-c2ccc(Oc3ccc(F)cc3)cc2)c2ccccc2n1 [Compound 13l, (S)-1-(4-(4-(4-fluorophenoxy)phenyl)quinazolin-2-yl)pyrrolidine-2-carboxamide] | 0.105 | Ki (hNav1.7; [2]): 0.19 µM
OC[C@@H](O)c1nc(-c2ccc(Oc3ccc(F)cc3)cc2)c2ccccc2n1 [Compound 10, (S)-1-(4-(4-(4-fluorophenoxy)phenyl)quinazolin-2-yl)ethane-1,2-diol] | 0.849 | 
